Reference: patent US20140121235A1, “Method for Treating S6K-Overexpressing Cancers” (Rush University Medical Center, priority 2012, published 2014)

How the values were obtained:
[1] = test system: ERK1/2^T202/Y204 and MEK1/2^S217/S221 phosphorylation; test: Western blot of MAP kinase pathway phosphorylation in A375 cells; assay type: cell-based; conditions: for block of A77 1726-induced ERK1/2 and MEK1/2 phosphorylation: A375 cells pre-treated with inhibitor 1 hr, then A77 1726 100 μM 2 hr; for effect on ERK1/2 and MEK phosphorylation, inhibitor alone: A375 cells, PLX 4720 1 μM, rapamycin 20 nM, PPP 1 μM
Description: (§1) A375 cells seeded in a 6-well plate were starved in DMEM medium containing 0.5% FBS for 2 hr and treated with the indicated concentration of A77 1726 or PLX 4720 (1 μM) for another 2 hr (A) or treated with A77 1726 (100 μM) for the indicated time (B & C). Cells were harvested and analyzed for protein phosphorylation by specific antibodies as indicated. Protein loading was monitored by stripping membrane and re-probing with antibodies against non-phosphorylated proteins. […] A375 cells seeded in a 6-well plate were starved in DMEM medium containing 05% FBS for 2 hr and treated with the indicated concentration of A77 1726 in the absence or presence of uridine (200 μM). Phosphorylated and total proteins were analyzed by Western blot as described above.
(§2) A375 cells seeded in 6-well plates were starved in DMEM medium containing 0.5% FBS for 2 hr and then pre-treated with vehicle (0.1% dimethyl sulfoxide), LY294002 (10 μM) (A), PPP (1 μM) (B), or the inhibitors of the MAP kinase pathway (PLX4720, 1 μM; U0126, 10 μM; PD98059, 10 μM) (C) for 1 hr. Cells were then treated with A77 1726 (100 μM) or rapamycin (20 nM) as indicated for 2 hr. Cells were harvested and analyzed for protein phosphorylation by specific antibodies as indicated. Protein loading was monitored by stripping membrane and re-probing with antibodies against non-phosphorylated proteins.
(§3) Cells grown in 6-well plates were harvested and lysed in NP-40 lysis buffer (50 mM Tris-HCI (pH 8.0), 150 mM NaCl, 1% NP-40, 5 mM EDTA, 10 μg/ml aprotinin, 10 μg/ml leupeptin, and 1 mM phenylmethylsulfonyl fluoride). After incubation on ice for 30 min, the cell lysates were prepared by spinning down at 4° C., 15,000 rpm for 15 min. After electrophoresis and transfer to Immobolin membrane, proteins of interest were probed with their specific antibodies, followed by horseradish peroxidase-conjugated goat anti-rabbit IgG and SuperSignal Western Pico enhanced chemiluminoscence substrate (Pierce Chemical Co., Rockford, Ill.).
(§4) The PI-3 and MAP kinase pathways play an important role in cell proliferation, differentiation, and cell cycle progress. Multiple genes in these two pathways are frequently mutated and have a commanding role in driving tumorigenesis and tumor cell proliferation (2; 3). […] Here we tested whether A77 1726 affected the activation of MAP and PI-3 kinase pathways. A375 cells grown in 6-well plates were starved in the media containing 0.5% FBS for 2 hr and then treated with the indicated concentration of A77 1726. […] We next explored the effect of A77 1726 in phosphorylation of the molecules in the PI-3 kinase pathway.

[2] = test system: AKT^S473 and S6K1^T389 phosphorylation; test: Western blot of PI-3 kinase pathway phosphorylation in A375 cells; assay type: cell-based; conditions: for effect on AKT^S473 phosphorylation in A77 1726-treated cells: A375 cells, MAP kinase pathway inhibitor plus A77 1726
Description: as §1, §2, §3, §4

[3] = test system: A375 cells; test: Cell cycle analysis (propidium iodine, flow cytometer); assay type: cell-based; conditions: for effect on cell cycle, inhibitor alone: PLX4720 1 μM, U0126 10 μM, PD98059 10 μM, rapamycin 20 nM, LY294002 10 μM
Description: (A) Ability of uridine to relieve the cell cycle arrest in the S phase. A375 cells grown in 6-well plates were treated with the indicated concentration of A771726 with or without uridine (200 μM) for 24 hr. Cell cycle was analyzed in a flow cytometer as described in Materials and Methods. (B) Effect of the MAP kinase pathway inhibitors on A77 1726-mediated cell cycle arrest in the S phase. A375 cells were treated with A771726 (100 μM) in the absence or presence of 0.1% DMSO, […] (1 μM), U0126 (10 μM), PD98059 (10 for 24 hr. Single cell suspensions were prepared and analyzed for cell cycle in a flow cytometer. (C) Effect of the PI-3 kinase pathway inhibitors and their effect on A77 1726-mediated cell cycle arrest. A375 cells were treated with A77 1726 (100 μM), rapamycin (20 nM), and/or LY294002 (10 μM). After incubation for 24 hr, cells were harvested and analyzed for cell cycle progress.
(§5) Cells were grown in complete RPMI1640 medium with 10% fetal bovine serum in 6-well plates. Upon 60% confluence, the cells were treated with vehicle or with indicated concentrations of A77 1726 or various inhibitors as indicated for 24 hr. Cells were pulsed with 10 μM BrdU for 2 hr. Cells were harvested, denatured with 2N HCl for 5 min at room temperature followed by neutralization with 0.1M borate buffer (pH 8.5). After washing and blocking with normal mouse serum, the cells were stained with an Alexa Fluor 488-conjugated anti-BrdU monoclonal antibody (BD Bioscience), followed by analysis in a flow cytometer. Alexa Fluor 488-conjugated mouse IgG was included as a control. For cell cycle analysis, the cells were harvested and fixed with 2 ml cold 70% ethanol in PBS overnight at 4° C. Fixed cells were then washed 3 times with PBS, treated with RNaseA (100 μg/ml in 0.5 ml PBS). After incubation at room temperature for 30 min, cells were stained with 2.5 μl propidium iodine (10 mg/ml.) and immediately analyzed for DNA content in a flow cytometer.

[4] = test system: A375 cells; test: BrdU incorporation (DNA replication), flow cytometry; assay type: cell-based; conditions: for block of A77 1726-induced BrdU incorporation / DNA synthesis: A77 1726 100 μM plus inhibitor; for effect on DNA replication (BrdU labeling), inhibitor alone: PLX4720 1 μM, U0126 10 μM, rapamycin 20 nM, LY294002 10 μM
Description: (A) The effect of uridine to A77 1726-induced DNA synthesis. A375 cells were treated with the indicated concentration of A771726 in the absence or presence of uridine (200 μM) for 22 hr. After pulsing with BrdU (10 µM) for 2 hr, cells were harvested and analyzed for BrdU incorporation by staining with an Alexa Fluor-488-conjugated anti-BrdU monoclonal antibody followed by flow cytometry. (B) Effect of the MAP kinase pathway inhibitors to A77 1726-stimulated BrdU incorporation. A375 cells were treated with A77 1726 (100 μM) in the presence of 0.1% DMSO, PLX4720 (1 μM), U0126 (10 µM), PD98059 (10 μM). After incubation for 22 hr the cells were pulsed with BrdU for 2 hr. Single cell suspensions were stained for BrdU incorporation and analyzed for cell cycle in a flow cytometer as described in (A). (C) Effect of the PI-3 kinase pathway inhibitors and their effect on A77 1726-stimualted BrdU incorpration. A375 cells were treated with A771726 (100 μM), rapamycin (20 nM), and/or […] (10 μM). After incubation for 22 hr, cells were pulsed with BrdU for 2 hr, harvested and analyzed for BrdU labeling in a flow cytometer.
as §5

[5] = test system: A375 cells; test: Cell proliferation assay (ATP-based Cell-Glo)
Description: A375 cells were seeded in 96-well plates (2000 cells/well) and incubated the indicated concentrations of A77 1726 for 72 hr in the absence or presence of various concentrations PLX4720 (A, C) with or without uridine (200 μM) (B, D). Cell proliferation was analyzed by an ATP-based Cell-Glo assay. One representative of three experiments with similar results was shown. *p<0.01.
A375 cells were grown in complete RPMI 1640 medium supplemented with 10% fetal bovine serum. The cells were seeded in 96-well plates at the density of 2,000/well in the absence or presence of various concentrations of A77 1726, PLX4720, or uridine (200 μM). After incubation for 72 hr, cell proliferation was monitored by using an ATP-based Cell-Glo assay (Promegan, Madison, Wis.) following the manufacturer's instruction.

[6] = test system: ribosomal protein S6^S235/S236 phosphorylation; test: Western blot of S6 phosphorylation in A375 cells; assay type: cell-based; conditions: A375 cells; A77 1726 dose-dependent or 100 μM, rapamycin 20 nM, PPP 1 μM
Description: as §1, §2, §3, §4

For `CNC(=O)c1cc(Oc2ccc(NC(=O)Nc3ccc(Cl)c(C(F)(F)F)c3)cc2)ccn1` [BAY 43-9006], the “block of A77 1726-induced ERK1/2 and MEK1/2 phosphorylation” value [1] was “able to block” and the “effect on AKT^S473 phosphorylation in A77 1726-treated cells” value (shortened to “effect on AKT^S473 phosphorylation”) [2] was “further increase”.
In the case of `COc1cccc(-c2cc(=O)c3ccccc3o2)c1N` [PD98059], the “block of A77 1726-induced ERK1/2 and MEK1/2 phosphorylation” value [1] is reported as “unable to block”, the “effect on AKT^S473 phosphorylation” value [2] is reported as “further increase” and the “effect on cell cycle, inhibitor alone” value ([3]; A375 cells, 24 hr) is reported as “arrest of the cell cycle in G1 phase”. The “block of A77 1726-induced BrdU incorporation / DNA synthesis” value [4] was “partially blocked”.
With `CCCS(=O)(=O)Nc1ccc(F)c(C(=O)c2c[nH]c3ncc(Cl)cc23)c1F` [PLX4720] the “effect on A375 cell proliferation” value ([5]; PLX4720 100 or 500 nM by itself) was “inhibited”, the “effect on A375 cell proliferation” value ([5]; PLX4720 at 1 nM by itself) was “had no effect” and the “effect on A375 cell proliferation in combination with A77 1726” value ([5]; in the absence or presence of uridine) was “additive effect”. The “block of A77 1726-induced ERK1/2 and MEK1/2 phosphorylation” value [1] was “able to block”, the “effect on ERK1/2 and MEK phosphorylation, inhibitor alone” value [1] was “inhibited” and the “effect on AKT^S473 phosphorylation” value [2] was “further increase”. The “effect on cell cycle, inhibitor alone” value ([3]; A375 cells, 24 hr) was “arrest of the cell cycle in G1 phase”, the “block of A77 1726-induced BrdU incorporation / DNA synthesis” value [4] was “able to block” and the “effect on DNA replication (BrdU labeling), inhibitor alone” value [4] was “completely block DNA replication”.
In the case of `COc1cc([C@@H]2c3cc4c(cc3[C@H](O)[C@H]3COC(=O)[C@@H]23)OCO4)cc(OC)c1OC` [PPP], the “effect on S6^S235/S236 phosphorylation” value [6] is reported as “had no effect”, the “block of A77 1726-induced ERK1/2 and MEK1/2 phosphorylation” value [1] is reported as “abrogated” and the “effect on ERK1/2 and MEK phosphorylation, inhibitor alone” value [1] is reported as “had no effect”. The “block of A77 1726- and rapamycin-induced AKT phosphorylation” value ([2]; A375 cells pre-treated with LY294002 10 μM or PPP 1 μM) was “largely blocked”.
For `N#CC(=C(/N)Sc1ccccc1N)/C(C#N)=C(\N)Sc1ccccc1N` [U0126], the “block of A77 1726-induced ERK1/2 and MEK1/2 phosphorylation” value [1] was “able to block”, the “effect on AKT^S473 phosphorylation” value [2] was “further increase” and the “effect on cell cycle, inhibitor alone” value ([3]; A375 cells, 24 hr) was “arrest of the cell cycle in G1 phase”. The “block of A77 1726-induced BrdU incorporation / DNA synthesis” value [4] was “able to block” and the “effect on DNA replication (BrdU labeling), inhibitor alone” value [4] was “completely block DNA replication”.
In the case of `O=c1ccn([C@@H]2O[C@H](CO)[C@@H](O)[C@H]2O)c(=O)[nH]1` [Uridine, uridine], the “effect on cell cycle of A77 1726-treated cells” value ([3]; A375 cells treated with A77 1726 at three concentrations plus uridine) is reported as “almost normalize cell cycle” and the “effect on cell cycle arrest, uridine alone” value ([3]; A375 cells, uridine 200 μM, 24 hr) is reported as “little effect”.
